Assay results published in patent publication EP0424538A1, “PYRIDINE DERIVATIVES AND THEIR SALTS, AND INSECTICIDAL/ACARICIDAL AGENT CONTAINING THE SAME AS ACTIVE INGREDIENT” (IDEMITSU KOSAN COMPANY LIMITED, priority 1989, dated 1990).

Tested on: larvae (3-periods old) of tobiirounka
Assay: rice stalk immersion test, life or death of larvae
Type: in vivo
Conditions: 168 h; rice stalk immersed 1 minute in 500 ppm chemical solution; checked after 7 days at 25 °C; read-out: % dead larvae
Protocol: A stalk of rice cut in a length of 10 cm was immersed for 1 minutes in a chemical solution of one of the compounds obtained in the examples (excepting the compound of Example 4) in a concentration of 500 ppm and, after air-drying, put into a test tube containing water, in which larvae (3-periods old) of tobiirounka were released and kept standing in a thermostatic chamber at 25 °C with a cotton plug.
After 7 days of the testing, life or death of the above mentioned larvae was checked to find 100% dead larvae with each of the compounds obtained in the examples. Comparative Test Example.
In place of the compounds used in Test Example, the same test was undertaken by using: . [drawing 136]

Compound | mortality at 500 µg/mL [%]
CCCCc1cnccc1CC | 92
C=CCC(CC=C)c1ccncc1C [CA 85, 32850y, 1976] | 90
CC(C)(C)c1ccncc1C(C)(C)C [CA 100, 155997n, 1984] | 92
Cc1cnccc1C(C)CCC1CCCCC1 (stereo not drawn) [CA 109, 6426j, 1988] | 98

Tested on: cabbage maggot (Hylemya brassicae)
Assay: not given
Conditions: from Chemical Abstracts and Journal of Economic Entomology, 41, 98, 1948; cited from earlier work

Compound | activity against cabbage maggot
CCCCC(CCCC)c1ccncc1 [4-(5-nonyl) pyridine] | no activity was recognized
CCCCCc1ccncc1 [4-n-amyl pyridine] | no activity was recognized
